# Measurements from US20190054054A1, “Methods reducing or preventing oxidation of high density lipoprotein (HDL)” (Amarin Pharmaceuticals Ireland Limited, priority 2017, published 2019).
# “Also recorded” adds a separate entry of the source.
# How the values were obtained:
# [1] = system: rat renal glomerular endothelial cells; assay: NO and ONOO^− release ex vivo from rat glomerular endothelial cells exposed to oxLDL and high glucose (Example 13); assay type: cell-based; conditions: oxLDL 11 mg/dL and glucose 300 mg/dL, treatment 1 hr at 10.0 μM
# Procedure: Healthy male Wistar Kyoto (WKY) rats, aged 7-9 weeks and weighing 250±20 g, were obtained from inbred colonies (National Institutes of Health, Bethesda, Md.). Animals were housed in a controlled environment that provided food and water ad libitum prior to the study. […] Animals were sacrificed and tissue samples obtained immediately for experimentation. All procedures were conducted in accordance with standard Institutional Animal Care and Use Committee guidelines and conformed to the Guide for the Care and Use of Laboratory Animals published by the US National Institutes of Health.
# EPA and DHA were purchased from Sigma-Aldrich (St. Louis, Mo.) and solubilized in ethanol to 1.0 mM under nitrogen atmosphere. […] The calcium ionophore (Cal), A23187, was purchased from Sigma-Aldrich and prepared in aqueous buffer to 1.0 mM. All test compounds were further diluted in ethanol or aqueous buffer as needed.
# Venous blood from healthy normolipidemic volunteers was collected into Na-EDTA (1 mg/mL blood) vacuum tubes after a 12-hour fast. […] The LDL fraction was dialyzed for 96 hours against PBS containing 0.3 mM EDTA and stored at 4° C. until experimental use.
# LDL was oxidized according to the methods of Huber et al. 16 Briefly, the purified LDL fraction was dialyzed against Tris/NaCl Buffer (50 mM Tris in 0.15 M NaCl, pH 8.0) to remove EDTA. Additional buffer was added to adjust the protein concentration to 30 mg/mL. LDL oxidation was initiated with 20 μM CuSO4 and monitored spectrophotometrically (234 nm) over a period of 24 hours until complete. The oxLDL was then dialyzed at 4° C. with 4 L Tris buffer, filtered with a 0.22 µm filter, and stored under nitrogen at 4° C.
# Immediately after sacrificing the rats, kidneys were removed, cut into […] sections and transferred to a separate organ chamber containing Dulbecco's phosphate buffered saline ([…]) and […] glucose at pH 7.4.
# Concurrent measurements of NO and ONOO^− were performed on intact glomerular (cortical zone) endothelial cells using tandem electrochemical nanosensors, as previously described (FIG. 45).
# The NO/ONOO^− nanosensor was positioned near the surface of the endothelial cells using a computer-controlled M3301 micromanipulator (x-y-z resolution of 0.2 μm) and microscope (both from World Precision Instruments, Berlin, Germany) fitted with a CD camera. Each analyte was measured from amperograms and standard calibration curves collected under maximum current. […] After establishing a background current, maximal NO and ONOO^− release was induced by injecting Cal into the organ chamber using a nanoinjector (World Precision Instruments, Berlin Germany). Changes in current (proportional to the molar concentrations of NO or ONOO^− released) were monitored continuously immediately following Cal stimulation.
# Data are presented as mean+standard deviation (SD) for (N) separate samples or experiments. Differences between groups were analyzed using the unpaired, two-tailed Student's t-test (for comparisons between only two groups) or ANOVA followed by Student-Newman-Keuls multiple comparisons post hoc analysis (for comparisons between three or more groups). Only differences with probability values less than 0.05 were considered significant.
# [2] = patients; clinical studies by others; cited from earlier work
# [3] = system: human HDL; assay: Copper-induced oxidation of human HDL, TBARS/MDA (Example 14); assay type: biochemical
# Procedure: LDL and sdLDL subfractions (0.6 mL each) were incubated with either 10 μL vehicle (ethanol) or 10 μL drug stock solution for 30 min to 1 hr at 37° C. Oxidation was initiated by the addition of 10 μM CuSO4. After 2 hr, 100 μL aliquots were removed from each subfraction and combined with 1.0 mL thiobarbituric acid (0.5%), 10 μL trichloroacetic acid (5%), 10 μL BHT (5 mg/mL in methanol), and 10 μL EDTA (5 mM). Sample aliquots were incubated at 100° C. for 20 min and then assayed for the formation of thiobarbituric acid-reactive substances (TBARS), which have a molar absorptivity (c) value of 1.56×10^5 M^−1 cm^−1 at 532 nm and are derived principally from the reaction of thiobarbituric acid with malondialdehyde (MDA), a reactive aldehyde produced by LDL oxidation. Sample TBARS concentrations were determined spectrophotometrically by measuring sample absorbances against a standard curve derived from the hydrolysis of 1,1,3,3-tetramethoxypropane.
# A study was performed to test whether EPA, DHA or EPA/DHA have antioxidant effects on high density lipoprotein. HDL was isolated from human plasma by iodixanol gradient ultracentrifugation and adjusted to a final apolipoprotein (apoA1) concentration of 10 mg/mL. Isolated HDL was separated into test samples of 200 μg/mL […] (based on ApoA1), and incubated at 37° C. in the absence (vehicle) or presence of EPA and/or DHA; 5.0 or […] each. Samples were then subjected to copper-induced oxidation (10 μM CuSO4) and, at different time points up to 14 hours, aliquots were removed from each sample and formation of TBARS was determined as explained above in Example 6.
# [4] = 5 μM (combination: 5 μM each), 6 h
smiles,measurement,setting,value
"CC/C=C\C/C=C\C/C=C\C/C=C\C/C=C\CCCC(=O)O [EPA, cis-5,8,11,14,17-eicosapentaenoic acid]",NO/ONOO^− Ratio,[1],1.08
same,increase in NO release,[1]; versus vehicle,205%
same,increase of the NO/ONOO^− ratio,[1]; versus vehicle,more than 4 fold
same,reduction of ONOO^− release,[1]; versus vehicle,27%
same,"triglycerides and oxidized LDL, Lp-PLA2, hsCRP as compared to placebo",[2],"significant reductions in levels of oxidized LDL, Lp-PLA2, and hsCRP; also recorded: significant reductions in triglycerides along with reduced levels of markers of inflammation"
same,MDA formation,[3]; [4],1.03 ± 0.10 µM
same,inhibition of HDL oxidation (antioxidant activity),[3]; [4],81%
same,MDA formation,"[3]; 10 μM, 1.0 hr, 10 μM CuSO4",0.384 ± 0.097 µM
same,inhibition of HDL oxidation,"[3]; 10 μM, 1.0 hr, 10 μM CuSO4",92%
same,MDA formation,"[3]; 10 μM, 4 h",0.622 ± 0.066 µM
same,inhibition of HDL oxidation,"[3]; 10 μM, 4 h",89%
same,MDA formation,"[3]; 10 μM, 14 h",2.01 ± 0.10 µM
same,inhibition of HDL oxidation vs. vehicle,"[3]; 10 μM, 14 h",64%
